This is an account of results in US20220204498A1, “PYRIDO-PYRIMIDINYL COMPOUNDS AND METHODS OF USE” (Genentech, Inc., priority 2019, published 2022).

For orientation: IC50 means the concentration that gives 50% inhibition.

Structures can show the parent of a compound that is named as a salt.

For this assay, the target named is T1, IRE1α (Homo sapiens, UniProt O75460, D688N).
T1 construct: containing the kinase and RNase domains (KR, AA G547-1L977, D688N); made in house; host or cells: Sf9 insect cells
T1 sequence (O75460 547-977 D688N): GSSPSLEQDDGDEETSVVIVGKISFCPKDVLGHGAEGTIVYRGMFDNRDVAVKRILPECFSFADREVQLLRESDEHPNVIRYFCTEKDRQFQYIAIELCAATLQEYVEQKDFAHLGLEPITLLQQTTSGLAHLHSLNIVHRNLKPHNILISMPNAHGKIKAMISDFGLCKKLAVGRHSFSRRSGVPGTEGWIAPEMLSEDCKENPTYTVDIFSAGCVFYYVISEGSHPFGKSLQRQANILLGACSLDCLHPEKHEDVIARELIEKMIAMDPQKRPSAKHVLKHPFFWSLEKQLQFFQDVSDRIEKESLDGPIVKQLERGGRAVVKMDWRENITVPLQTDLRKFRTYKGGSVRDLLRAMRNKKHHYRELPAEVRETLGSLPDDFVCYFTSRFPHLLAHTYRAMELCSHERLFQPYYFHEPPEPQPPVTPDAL
The assay is described as follows: IRE1α TR-FRET competition binding assay (IRE1α HTRF). Conditions: His-tagged IRE1α kinase dead construct (KR, D688N) 0.25 nM; Alexa fluor 647-labeled ATP competitive probe 2 nM; one hour at room temperature; read-out: IRE1α (alpha) HTRF (IC50). As to the method:
Example 59. IRE1α TR-FRET Competition Binding Assay
To determine the affinity of compound binding to the kinase domain of IRE1α, a time-resolved fluorescence resonance energy transfer (TR-FRET) competition assay was used.
A His-tagged IRE1α kinase dead construct containing the kinase and RNase domains (KR, AA G547-1L977, D688N) was expressed in Sf9 insect cells. The purified protein (final concentration 0.25 nM) was pre-incubated with anti-His Europium labeled antibody (Life Technologies PV5596, final concentration 2 nM) for one hour at 4° C. in TR-FRET Assay Buffer (50 mM HEPES, pH 7.5, 10 mM MgCl2, 0.083 mM Brij 35, 1 mM DTT, and 0.1% bovine gamma globulin) prior to addition to test compounds. An Alexa fluor 647-labeled probe based on an ATP competitive inhibitor was added to a final concentration of 2 nM. Reactions were carried out for one hour at room temperature in a final volume of 20 μL in 384 well white ProxiPlates (Perkin Elmer 6008289). Binding of the probe to the IRE1α protein was detected in an Envision instrument (PerkinElmer) equipped with a TRF laser option and a LANCE/Delfia Dual/Bias D400/D630 mirror (Ex 347 nm, 1st Em 665 nm, 2nd Em 615 nm).
(In general: TR-FRET usually uses a lanthanide donor and a delayed reading to cut background.)
Regarding `Cc1cc(-c2ccc(NS(=O)(=O)c3cnccc3C(F)(F)F)c(F)c2)nc2cnc(N[C@H]3CC[C@H](N(C)C)CC3)nc12` [Compound 156, N-[4-[2-[[(1,4-trans)-4-(Dimethylamino)cyclohexyl]amino]-8-methyl-pyrido[3,2-d]pyrimidin-6-yl]-2-fluoro-phenyl]-4-(trifluoromethyl)pyridine-3-sulfonamide], the IC50 stood at 0.18 nM.

As to `O=S(=O)(Cc1ccccc1)Nc1c(F)cc(-c2cc3cnc(N[C@@H]4CNC[C@@H](F)C4)nc3nc2OC2CCOC2)c(F)c1F` (single isomer, unassigned) [Compound 105], the IC50 worked out at 0.39 nM.

Take `CCc1cc(-c2ccc(NS(=O)(=O)Cc3ccccc3)c(F)c2)nc2cnc(N[C@@H]3CNC[C@@H](F)C3)nc12` [Compound 122, N-(4-(8-Ethyl-2-(((3S,5S)-5-fluoropiperidin-3-yl)amino)pyrido[3,2-d]pyrimidin-6-yl)-2-fluorophenyl)-1-phenylmethanesulfonamide formate]: the IC50 came to 0.2 nM.

As for `CCCS(=O)(=O)Nc1ccc(-c2cc(C)c3nc(N[C@H]4CC[C@H](N(C)C)CC4)ncc3n2)cc1F` [Compound 112, N-(4-(2-(((1,4-trans)-4-(Dimethylamino)cyclohexyl)amino)-8-methylpyrido[3,2-d]pyrimidin-6-yl)-2-fluorophenyl)propane-1-sulfonamide formate], the IC50 stood at 0.32 nM.

As to `CC(Oc1nc2nc(N[C@@H]3CNC[C@@H](F)C3)ncc2cc1-c1ccc(NS(=O)(=O)Cc2ccccc2)c(F)c1F)C(F)F` (single isomer, unassigned) [Compound 103], the IC50 was 1.1 nM.

For the molecule `O=S(=O)(Cc1ccccc1)Nc1c(F)cc(-c2cc3cnc(N[C@@H]4CNC[C@@H](F)C4)nc3nc2OC2CCOC2)c(F)c1F` (single isomer, unassigned) [Compound 104], the IC50 was 0.66 nM.

On to `CCCS(=O)(=O)Nc1ccc(-c2cc(C)c3nc(N[C@@H]4CNC[C@@H](F)C4)ncc3n2)cc1F` [Compound 111, N-(2-Fluoro-4-(2-(((3S,5S)-5-fluoropiperidin-3-yl)amino)-8-methylpyrido[3,2-d]pyrimidin-6-yl)phenyl)propane-1-sulfonamide], for which the IC50 turned out to be 2.1 nM.

Turning to `O=S(=O)(Cc1ccccc1)Nc1ccc(-c2ccc3nc(N[C@@H]4CNC[C@@H](F)C4)ncc3n2)cc1F` [Compound 100, N-(2-Fluoro-4-(2-(((3S,5S)-5-fluoropiperidin-3-yl)amino)pyrido[3,2-d]pyrimidin-6-yl)phenyl)-1-phenylmethanesulfonamide], the IC50 came out at 0.89 nM.

For `Cc1cc(-c2ccc(NS(=O)(=O)CCC(F)(F)F)c(F)c2)nc2cnc(N[C@@H]3CNC[C@@H](F)C3)nc12` [Compound 110, 3,3,3-Trifluoro-N-(2-fluoro-4-(2-(((3S,5S)-5-fluoropiperidin-3-yl)amino)-8-methylpyrido[3,2-d]pyrimidin-6-yl)phenyl)propane-1-sulfonamide], the IC50 is 1.1 nM.

For the molecule `CCc1cc(-c2ccc(NS(=O)(=O)CCC(F)(F)F)c(F)c2)nc2cnc(N[C@H]3CC[C@H](N(C)C)CC3)nc12` [Compound 114, N-(4-(2-(((1,4-trans)-4-(Dimethylamino)cyclohexyl)amino)-8-ethylpyrido[3,2-d]pyrimidin-6-yl)-2-fluorophenyl)-3,3,3-trifluoropropane-1-sulfonamide], the IC50 worked out at 0.08 nM.

Regarding `CC(C)c1cc(-c2ccc(NS(=O)(=O)CCC(F)(F)F)c(F)c2)nc2cnc(N[C@H]3CC[C@H](N(C)C)CC3)nc12` [Compound 124, N-(4-(2-(((1,4-trans)-4-(Dimethylamino)cyclohexyl)amino)-8-isopropylpyrido[3,2-d]pyrimidin-6-yl)-2-fluorophenyl)-3,3,3-trifluoropropane-1-sulfonamide], the IC50 turned out to be 0.16 nM.

In the case of `Cc1cc(-c2ccc(NS(=O)(=O)c3cccnc3)c(F)c2)nc2cnc(N[C@H]3CC[C@H](N(C)C)CC3)nc12` [Compound 154, N-[4-[2-[[(1,4-trans)-4-(Dimethylamino)cyclohexyl]amino]-8-methyl-pyrido[3,2-d]pyrimidin-6-yl]-2-fluoro-phenyl]pyridine-3-sulfonamide], the half-maximal inhibitory concentration (IC50) was 0.21 nM.

As to `CCc1cc(-c2ccc(NS(=O)(=O)c3ccccc3Cl)c(F)c2)nc2cnc(N[C@@H]3CNC[C@@H](F)C3)nc12` [Compound 123, 2-Chloro-N-(4-(8-ethyl-2-(((3S,5S)-5-fluoropiperidin-3-yl)amino)pyrido[3,2-d]pyrimidin-6-yl)-2-fluorophenyl)benzenesulfonamide formate], the IC50 came out at 0.18 nM.

Consider `CN(C)[C@H]1CC[C@H](Nc2ncc3nc(-c4ccc(NS(=O)(=O)Cc5ccc(F)cc5)c(F)c4)cc(C(F)F)c3n2)CC1` [Compound 131, N-1,4-trans-[4-[8-(Difluoromethyl)-2-[[4-(dimethylamino)cyclohexyl]amino]pyrido[3,2-d]pyrimidin-6-yl]-2-fluoro-phenyl]-1-(4-fluorophenyl)methanesulfonamide], for which the IC50 was 0.15 nM.
